In ChEMBL document CHEMBL4177664, “Macrocyclic pyrrolobenzodiazepine dimers as antibody-drug conjugate payloads” (Bioorg Med Chem Lett, 2017) one finds IC50, Stability and solubility data, which are given here for 15 compounds.

Some results are limits rather than exact numbers.

Data set [1] concerns NCI-H226. The data set can be described thus: Antiproliferative activity against human NCI-H226 cells after 72 hrs by MTS assay. Particulars: NCI-H226, 72 h. The data set is classed as functional, cell-based.
In data set [2] the test system is NCI-N87. Briefly: Antiproliferative activity against human NCI-N87 cells after 72 hrs by MTS assay. The format is functional, cell-based. As to conditions: NCI-N87, 72 h. A general note: Tetrazolium assays rely on reduction of a dye to a coloured formazan, in cell work by metabolically active cells.
Data set [3] concerns OVCAR-3. Briefly: Antiproliferative activity against human OVCAR3 cells after 72 hrs by MTS assay. The format is functional, cell-based. As to conditions: OVCAR-3, 72 h.
Data set [4] deals with HCT-116. Briefly: Antiproliferative activity against human HCT116 cells after 72 hrs by MTS assay. The format is functional, cell-based. Particulars: HCT-116, 72 h.
In data set [5] the test system is HCT-116/VM46. The data set can be described thus: Antiproliferative activity against human HCT116/VM46 cells after 72 hrs by MTS assay. The data set is classed as functional, cell-based. Particulars: HCT-116/VM46, 72 h.
Data set [6] in a line: Stability in rat serum measured up to 24 hrs. The format is ADME, cell-free.
Data set [7] is described as follows: Stability in human serum measured up to 24 hrs. The data set is classed as ADME, cell-free.
A short description of data set [8]: Stability in mouse serum measured up to 24 hrs. The format is ADME, cell-free.
Data set [9] in a line: Aqueous solubility of the compound at pH 5.5. The data set is classed as physicochemical. Particulars: aqueous medium.

The IC50 is the point on the concentration scale where inhibition reaches its midpoint. For the compound `O=C1c2cc3c(cc2N=C[C@@H]2CCCN12)OCCCOc1cc2c(cc1OCCCCCCCO3)C(=O)N1CCC[C@H]1C=N2`, the IC50 in data set [1] came to 8.1 nM; in [2], 4.6 nM; in data set [3], 3.4 nM.
Taken in the same sequence, the figures for `O=C1c2cc3c(cc2N=C[C@@H]2CCCN12)OCCCOc1cc2c(cc1OCCCCCCCCCO3)C(=O)N1CCC[C@H]1C=N2` were 8.7 nM, 8.3 nM and 7.3 nM.
Consider `O=C1c2cc3c(cc2N=C[C@@H]2CCCN12)OCCCOc1cc2c(cc1OCCCCCCCCCCCCO3)C(=O)N1CCC[C@H]1C=N2`, for which the IC50 turned out to be 109 nM in data set [1], 306 nM in [2] and 136 nM in [3].
With `CN1CCN(c2ccc(C3=CN4C(=O)c5cc6c(cc5N=C[C@@H]4C3)OCCCOc3cc4c(cc3OCCCCCCCCO6)C(=O)N3C=C(c5ccc(N)cc5)C[C@H]3C=N4)cc2)CC1`, the IC50 came to 0.024 nM in data set [1]; 0.486 nM in [2]; 0.385 nM in data set [3]; 0.016 nM in data set [4]; 0.015 nM in data set [5].
As for `O=C(CCN1C(=O)C=CC1=O)NCCOCCOCCOCCOCCOCCOCCOCCOCCC(=O)ON1C(=O)CCC1=O`, the Stability result in data set [6], in [7] and in data set [8] was “Unstable” each time.
For `O=C1c2cc3c(cc2N=C[C@@H]2CCCN12)OCCCOc1cc2c(cc1OCCCCCCCCCCO3)C(=O)N1CCC[C@H]1C=N2`, the IC50 in data set [1] came to 12 nM; in data set [2], 22 nM; in data set [3], 20 nM.
The term solubility denotes the dissolved amount per volume that the medium holds. Read a low solubility as a poorly soluble substance. Turning to `COc1ccc(C2=CN3C(=O)c4cc5c(cc4N=C[C@@H]3C2)OCCCOc2cc3c(cc2OCCCCCCCCO5)C(=O)N2C=C(c4ccc(OC)cc4)C[C@H]2C=N3)cc1`, the IC50 was 0.993 nM in [1]; 0.621 nM in [2]; 1.82 nM in data set [3]; 0.167 nM in data set [4]; 1.05 nM in [5]. In data set [9], this compound returned a solubility below 1 µg/mL.
On to `O=C1c2cc3c(cc2N=C[C@@H]2CCCN12)OCCCOc1cc2c(cc1OCCCCCCCCCCCO3)C(=O)N1CCC[C@H]1C=N2`, for which the IC50 in data set [1] came to 69 nM; in data set [2] it was 146 nM; in data set [3], 78 nM.
Taken in the same sequence, the figures for `O=C1c2cc3c(cc2N=C[C@@H]2CCCN12)OCCCOc1cc2c(cc1OCCCCCCCCO3)C(=O)N1CCC[C@H]1C=N2` were 1.6 nM, 2.7 nM and 1.2 nM.
`CN1CCN(c2ccc(C3=CN4C(=O)c5cc6c(cc5N=C[C@@H]4C3)OCCCOc3cc4c(cc3OCCCCCCCCO6)C(=O)N3C=C(c5ccc(N6CCN(C)CC6)cc5)C[C@H]3C=N4)cc2)CC1`: the IC50 in [1] is 0.047 nM; in [2], 0.034 nM; in data set [3] it was 0.35 nM; in data set [4] it was 0.006 nM; in data set [5], 0.076 nM. The compound further yielded a solubility in [9] above 698 µg/mL.
With `COc1cc2c(cc1OCCCOc1cc3c(cc1OC)C(=O)N1C=C(c4ccccc4)C[C@H]1C=N3)N=C[C@@H]1CC(c3ccccc3)=CN1C2=O`, the results for the IC50 in [1], in data set [2] and in data set [3] were 0.117 nM, 0.152 nM and 0.126 nM, respectively.
Regarding `COc1ccc(C2=CN3C(=O)c4cc5c(cc4N=C[C@@H]3C2)OCCCOc2cc3c(cc2OCCCCCCCCO5)C(=O)N2C=C(c4ccc(N)cc4)C[C@H]2C=N3)cc1`, the IC50 in [1] amounted to 0.355 nM; in data set [2], 0.559 nM; in [3], 0.311 nM; in data set [4], 0.063 nM; in data set [5], 0.36 nM.
On to `O=C1c2cc3c(cc2N=C[C@@H]2CC(c4ccccc4)=CN12)OCCCOc1cc2c(cc1OCCOCCOCCO3)C(=O)N1C=C(c3ccccc3)C[C@H]1C=N2`, for which the IC50 was 1.07 nM in data set [1]; 1.54 nM in data set [2]; 1.7 nM in data set [3]; 0.129 nM in data set [4]; 6.44 nM in data set [5]. The same compound displayed a solubility in [9] below 1 µg/mL.
Turning to `CC1=CN2C(=O)c3cc4c(cc3N=C[C@@H]2C1)OCCCOc1cc2c(cc1OCCCCCCCCO4)C(=O)N1C=C(c3ccc(N)cc3)C[C@H]1C=N2`, the IC50 in data set [1] is 0.655 nM; in data set [2] it was 1.36 nM; in data set [3], 1.24 nM; in [4] it was 0.135 nM; in data set [5], 1.22 nM.
Regarding `COc1cc2c(cc1OCCCOc1cc3c(cc1OC)C(=O)N1CCC[C@H]1C=N3)N=C[C@@H]1CCCN1C2=O` [DSB-120], the IC50 was determined as 70 nM in [1], 63 nM in data set [2] and 56 nM in data set [3].
